Read-outs that look alike come from different tables or passages of the source. Ends that are not written are not given here.
Tests used:
[1] = Peptide-lipid interaction with pure lipids, lipid monolayer; assay type: binding; details: peptide 1 µg/ml; for Interaction with pure lipids: POPG, cardiolipin, LTA, POPE above POPC, initial surface pressure 30 ± 0.5 mN/m
Method: Membrane permeabilsation was evaluated using propidium iodide assay as previously explained,[43] with CTAB as positive control. Peptide–lipid interaction was measured using reconstituted lipid monolayer.[44] Total lipid extract from overnight liquid cultures of MRSA USA300 was obtained by Folch extraction, resuspended in chloroform and stored at −20 °C under nitrogen conditions. Pure bacterial and eukaryotic lipids, POPG, cardiolipin, LTA, POPE and POPC (Avanti Polar Lipid USA) were reconstituted in chloroform at 1 mg/ml and stored at −20 °C under nitrogen. Using a 50 µl Hamilton’s syringe, total MRSA lipid extract or pure lipids were spread at the surface of PBS creating a lipid monolayer at the air-water interface until an initial surface pressure of 30 ± 0.5 mN/m was reached. This corresponds to a lipid packing density theoretically equivalent to that of the outer leaflet of the cell membrane.[45] After 5–10 min of incubation allowing evaporation of the solvent and stabilization of the initial surface pressure, peptides were injected into the PBS (pH 7.4, volume 800 µl) sub-phase using a 10 µl Hamilton syringe. The variation of the surface pressure caused by peptide injection was then continuously monitored using a fully automated microtensiometer (µTROUGH SX, Kibron Inc., Helsinki, Finland) until reaching equilibrium (maximal surface pressure increase usually obtained after 15–25 min). Critical pressure of insertion of each peptide in the different lipids was also determined by changing the initial pressure of lipid monolayer (from 10 and 30 mN/m) and measuring the variation of pressure caused by the injection of peptide (at 1 µg/ml final concentration). All experiments were carried out in a controlled atmosphere at 20 °C ± 1 °C and data were analyzed using the Filmware 2.5 program (Kibron Inc., Helsinki, Finland). Variation of surface pressure was plotted as a function of initial surface pressure and critical pressure of insertion was calculated as the theoretical value of initial pressure of lipid monolayer not permissive to peptide insertion, i.e., a variation of pressure equal to 0 mN/m. The accuracy of the system under our experimental conditions was determined to be ± […] for surface pressure measurements.

K. pneumoniae = assay: microbe, parasite or virus in culture; details: cation adjusted MHB, 18–24 h
Method: (§1) Peptides dissolved in sterile distilled water and comparator antibiotics dissolved in the appropriate solvents[38] were added to sterile U-bottom polypropylene 96-well microplates at desired concentrations.

A. baumanii = assay: microbe, parasite or virus in culture
Method: as §1

MRSA strains = assay: Time kill kinetics; assay type: cell-based, Staphylococcus aureus; details: 3× MIC, MHB
Method: Assessment of the bactericidal activity of peptides and comparator antibiotics was performed as previously described[39] using exponential-phase cultures of pathogens grown in MHB ([…]). Peptides were added at concentrations 3 times their MIC values. Experiments were performed in quadruplicates, and CFU/ml was calculated at different time points after over overnight incubation.

E. coli K12 = assay: SPOT peptide library screen (resazurin fluorescence); assay type: cell-based, Escherichia coli; set-up: unit not given here; details: 75% reduction of fluorescence vs untreated controls; active IC75≤0.25, semi-active 0.25<IC75≤0.50, inactive IC75>0.5
Excerpt: The peptides in the created peptide library were synthesized based on the SPOT technique and pure peptides (≥95% purity) were synthesized on resin using solid phase Fmoc peptide chemistry.[16] The 135 peptides in the peptide library were screened for antimicrobial activity using both luminescent (Pseudomonas aeruginosa strain H1001)[34] and non-luminescent (epidemic methicillin resistant S. aureus EMRSA-15, Sal. typhimurium and E. coli K12) bacterial strains. Activity against non-luminescent bacteria strains was assessed by fluorescence readings (excitation/emission spectra of 560/590 nm) after the addition of resazurin dye (100 µm final concentration). The results from the screen were analysed using the MATLAB extension Gait-CAD as previously described.[35] Concentration values with a 75% reduction of luminescence or fluorescence (IC75) in relation to untreated controls were computed.

[2] = test system: human and sheep erythrocytes
Method: The haemolytic activity of peptides was determined by measuring haemoglobin leakage from human and sheep erythrocytes (Divbioscience, NL) after 1 h incubation at OD450nm. Cetyltrimethylammonium bromide (CTAB), a non-specific detergent was also included as a positive control. Triton-X 100 (0.1% v/v) was also used as an indicator of 100% haemolysis while PBS treatment represented auto-haemolysis.

[3] = test system: S. aureus MRSA ATCC 33591; assay: Neutropenic mouse MRSA thigh infection model; assay type: in vivo, Staphylococcus aureus; details: neutropenic male ICR mice; 10 mg/kg IV once or twice (2 h or 2 and 8 h post infection)
Method: In the thigh infection model, using neutropenic mice,[25] groups of five male ICR mice weighing 22 ± 2 g were inoculated intramuscularly (IM) with S. aureus MRSA, ATCC 33591 (1.57 × 10^5 CFU/mouse (0.1 ml/thigh)) in the right thigh. Lynronne-1, Lynronne-2 and Lynronne-3 at 10 mg/kg were intravenously (IV) administered once 2 h post infection or twice 2 and 8 h post-infection. The reference substance, vancomycin, was also intravenously injected 2 and 8 h post-infection at 10 and 30 mg/kg. Test animals were sacrificed 26 h after inoculation and the infected thighs were excised and the bacterial burden (CFU/gram) was determined.

[4] = Peptide-lipid interaction, lipid monolayer (Langmuir balance); assay type: binding, Staphylococcus aureus; details: initial surface pressure 30 ± 0.5 mN/m; compared to Lynronne-2
Method: Membrane permeabilsation was evaluated using propidium iodide assay as previously explained,[43] with CTAB as positive control. Peptide–lipid interaction was measured using reconstituted lipid monolayer.[44] Total lipid extract from overnight liquid cultures of MRSA USA300 was obtained by Folch extraction, resuspended in chloroform and stored at −20 °C under nitrogen conditions. Pure bacterial and eukaryotic lipids, POPG, cardiolipin, LTA, POPE and POPC (Avanti Polar Lipid USA) were reconstituted in chloroform at 1 mg/ml and stored at −20 °C under nitrogen. […] The variation of the surface pressure caused by peptide injection was then continuously monitored using a fully automated microtensiometer (µTROUGH SX, Kibron Inc., Helsinki, Finland) until reaching equilibrium (maximal surface pressure increase usually obtained after 15–25 min). Critical pressure of insertion of each peptide in the different lipids was also determined by changing the initial pressure of lipid monolayer (from 10 and 30 mN/m) and measuring the variation of pressure caused by the injection of peptide (at 1 µg/ml final concentration). All experiments were carried out in a controlled atmosphere at 20 °C ± 1 °C and data were analyzed using the Filmware 2.5 program (Kibron Inc., Helsinki, Finland). […]

MRSA USA300 cells = assay: Transmission electron microscopy of treated cells; assay type: cell-based, Staphylococcus aureus; details: 3× MIC for 1 h
Excerpt: Effects of AMPs on bacterial cell morphology was investigated using transmission electron microscopy as described by Huws et al.[49] […] Cells were post-fixed with 1% osmium tetroxide (w/v), stained with 2% (w/v) uranyl acetate and Reynold’s lead citrate and observed using a JEOL JEM1010 transmission electron microscope (JEOL Ltd, Tokyo, Japan) at 80 kV.

MRSA ATCC 33591 = assay: Anti-biofilm activity, 96-well crystal violet model; assay type: cell-based, Staphylococcus aureus; details: 0.25× MIC (data not shown)
Method: The effectiveness of Lynronne-1, Lynronne-2, and Lynronne-3 to prevent (a) biofilm attachment and (b) disrupt established biofilms was measured using a 96-well biofilm model.[50] […] The biofilms were washed in PBS to remove planktonic cells, fixed with methanol, stained with 0.5% (w/v) crystal violet and re-solubilized with 33% (v/v) acetic acid. The optical density of biofilms was measured at 570 nm.

| Substance | Interaction with pure lipids [1] | MIC (K. pneumoniae; strain ATCC 700603, SHV-18) [µg/mL] | MIC (K. pneumoniae; strain NCTC 13442, OXA-48) [µg/mL] | MIC (K. pneumoniae; strain Q14-0095, KPC) [µg/mL] | MIC (A. baumanii; strain 1560739339, OXA-23, cation adjusted MHB, 18–24 h) [µg/mL] | Reduction in viable count (MRSA strains; within the first 10 min) [log10 CFU/ml] | IC75 values indicating activity classes, E. coli (E. coli K12) | Haemolytic activity against red blood cells [2] | Antimicrobial effect compared to the vehicle/control group (0.9% NaCl) [3] | Insertion ability into MRSA lipid extract monolayer [4] | MIC (A. baumanii) [µg/mL] | Affinity for lipids by critical pressure of insertion ([1]; initial pressure varied 10 to 30 mN/m) | Reduction in viable count (MRSA strains; in 30 min) [log10 CFU/ml] | Changes in cell morphology (TEM) (MRSA USA300 cells) | Biofilm attachment (MRSA ATCC 33591) |
| --- | --- | --- | --- | --- | --- | --- | --- | --- | --- | --- | --- | --- | --- | --- | --- |
| NRFTARFRRTPWRLCLQFRQ-NH2 [Lynronne-3] | preferentially interact with lipids specific to bacteria | 32 | 32 | 32 | 32 | > 8 | 0.16 | little haemolytic activity | not associated with any significant antimicrobial effects | higher insertion ability |  |  |  |  |  |
| LPRRNRWSKIWKKVVTVFS-NH2 [Lynronne-1] | preferentially interact with lipids specific to bacteria | 16 | 16 |  |  | > 8 | 0.06 | little haemolytic activity | not associated with any significant antimicrobial effects | higher insertion ability | 4 |  |  |  |  |
| HLRRINKLLTRIGLYRHAFG-NH2 [Lynronne-2] | preferentially interact with lipids specific to bacteria |  |  |  |  |  | 0.09 | little haemolytic activity | not associated with any significant antimicrobial effects |  |  | highest affinity for LTA | > 3 | very little morphology changes | effective |
